Measured values as given in PubChem BioAssay (NCI).
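Exposure lasted 48 hours, with cells grown in 96-well plates and compounds tested at five concentrations. TGI denotes the concentration required for complete inhibition of growth.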 Calls of active or inactive are those of the source. No stated cut-off is given here; in the data, active means GI50 below about 0.43 µM; inactive means the rest.

What was measured:
Assay in all cases: NCI tumour cell line growth inhibition, 48 h
A549 NSCLC = system: A549 NSCLC
OVCAR-3 ovarian = system: OVCAR-3 ovarian
SNB-19 CNS = system: SNB-19 CNS
786-0 renal = system: 786-0 renal
SN12C renal = system: SN12C renal
RXF 393 renal = system: RXF 393 renal
MDA-MB-231 breast = system: MDA-MB-231 breast
SF-539 CNS = system: SF-539 CNS
UO-31 renal = system: UO-31 renal
SW-620 colon = system: SW-620 colon
SK-MEL-5 melanoma = system: SK-MEL-5 melanoma
SK-MEL-28 melanoma = system: SK-MEL-28 melanoma
HS 578T breast = system: HS 578T breast
SF-268 CNS = system: SF-268 CNS
HOP-62 NSCLC = system: HOP-62 NSCLC
U251 CNS = system: U251 CNS
HCT-116 colon = system: HCT-116 colon
ACHN renal = system: ACHN renal
TK-10 renal = system: TK-10 renal
MDA-N = system: MDA-N
KM12 colon = system: KM12 colon
MCF7 breast = system: MCF7 breast
OVCAR-5 ovarian = system: OVCAR-5 ovarian
OVCAR-4 ovarian = system: OVCAR-4 ovarian
MOLT-4 leukemia = system: MOLT-4 leukemia
MDA-MB-435 = system: MDA-MB-435
NCI-H522 lung = system: NCI-H522 lung
IGROV1 ovarian = system: IGROV1 ovarian
UACC-257 melanoma = system: UACC-257 melanoma
EKVX NSCLC = system: EKVX NSCLC
UACC-62 melanoma = system: UACC-62 melanoma
HT29 colon = system: HT29 colon
HOP-92 NSCLC = system: HOP-92 NSCLC
HCC-2998 colon = system: HCC-2998 colon
K-562 leukemia = system: K-562 leukemia
SF-295 CNS = system: SF-295 CNS
SR leukemia = system: SR leukemia
NCI-H226 lung = system: NCI-H226 lung
PC-3 prostate = system: PC-3 prostate
BT-549 breast = system: BT-549 breast
COLO 205 colon = system: COLO 205 colon
MALME-3M melanoma = system: MALME-3M melanoma
M14 melanoma = system: M14 melanoma
RPMI-8226 leukemia = system: RPMI-8226 leukemia
NCI-H460 lung = system: NCI-H460 lung
NCI/ADR-RES ovarian = system: NCI/ADR-RES ovarian
DU-145 prostate = system: DU-145 prostate
CAKI-1 renal = system: CAKI-1 renal
SK-MEL-2 melanoma = system: SK-MEL-2 melanoma
HL-60(TB) leukemia = system: HL-60(TB) leukemia
A498 renal = system: A498 renal
LOX IMVI melanoma = system: LOX IMVI melanoma
HCT-15 colon = system: HCT-15 colon
NCI-H23 lung = system: NCI-H23 lung
OVCAR-8 ovarian = system: OVCAR-8 ovarian
SNB-75 CNS = system: SNB-75 CNS
SK-OV-3 ovarian = system: SK-OV-3 ovarian
T-47D breast = system: T-47D breast
CCRF-CEM leukemia = system: CCRF-CEM leukemia

Q: Which TGI (A549 NSCLC) does the source give for Cc1ccc(-c2c(C#N)c(N)[nH]c(=S)c2C#N)cc1 here?
A: > 100 µM

Q: What about the TGI (OVCAR-3 ovarian) of the same compound?
A: > 100 µM

Q: And the TGI (SNB-19 CNS)?
A: > 100 µM

Q: And the TGI (786-0 renal)?
A: 77.5 µM

Q: What about the TGI (SN12C renal) of the same compound?
A: 76 µM

Q: What about the TGI (RXF 393 renal) of the same compound?
A: 46.5 µM

Q: And the TGI (MDA-MB-231 breast)?
A: > 100 µM

Q: What about the TGI (SF-539 CNS) of the same compound?
A: > 100 µM

Q: What about the TGI (UO-31 renal) of the same compound?
A: > 100 µM

Q: What about the TGI (SW-620 colon) of the same compound?
A: > 100 µM

Q: What about the TGI (SK-MEL-5 melanoma) of the same compound?
A: > 100 µM

Q: What about the TGI (SK-MEL-28 melanoma) of the same compound?
A: > 100 µM

Q: What about the TGI (HS 578T breast) of the same compound?
A: 51.4 µM

Q: What about the TGI (SF-268 CNS) of the same compound?
A: > 100 µM

Q: What about the TGI (HOP-62 NSCLC) of the same compound?
A: > 100 µM

Q: What about the TGI (U251 CNS) of the same compound?
A: > 100 µM

Q: And the TGI (HCT-116 colon)?
A: > 100 µM

Q: And the TGI (ACHN renal)?
A: > 100 µM

Q: And the TGI (TK-10 renal)?
A: > 100 µM

Q: What about the TGI (MDA-N) of the same compound?
A: 41.3 µM

Q: What about the TGI (KM12 colon) of the same compound?
A: > 100 µM

Q: And the TGI (MCF7 breast)?
A: > 100 µM

Q: And the TGI (OVCAR-5 ovarian)?
A: > 100 µM

Q: And the TGI (OVCAR-4 ovarian)?
A: > 100 µM

Q: And the TGI (MOLT-4 leukemia)?
A: 76.9 µM

Q: And the TGI (MDA-MB-435)?
A: 65.4 µM

Q: What about the TGI (NCI-H522 lung) of the same compound?
A: 55.6 µM

Q: And the TGI (IGROV1 ovarian)?
A: > 100 µM

Q: And the TGI (UACC-257 melanoma)?
A: > 100 µM

Q: What about the TGI (EKVX NSCLC) of the same compound?
A: 66.1 µM

Q: And the TGI (UACC-62 melanoma)?
A: > 100 µM

Q: And the TGI (HT29 colon)?
A: > 100 µM

Q: And the TGI (HOP-92 NSCLC)?
A: > 100 µM

Q: And the TGI (HCC-2998 colon)?
A: > 100 µM

Q: What about the TGI (K-562 leukemia) of the same compound?
A: > 100 µM

Q: And the TGI (SF-295 CNS)?
A: > 100 µM

Q: And the TGI (SR leukemia)?
A: 66.9 µM

Q: And the TGI (NCI-H226 lung)?
A: > 100 µM

Q: And the TGI (PC-3 prostate)?
A: > 100 µM

Q: And the TGI (BT-549 breast)?
A: > 100 µM

Q: What about the TGI (COLO 205 colon) of the same compound?
A: 69 µM

Q: And the TGI (MALME-3M melanoma)?
A: 62.2 µM

Q: What about the TGI (M14 melanoma) of the same compound?
A: > 100 µM

Q: And the TGI (RPMI-8226 leukemia)?
A: 65.8 µM

Q: What about the TGI (NCI-H460 lung) of the same compound?
A: > 100 µM

Q: And the TGI (NCI/ADR-RES ovarian)?
A: > 100 µM

Q: And the TGI (DU-145 prostate)?
A: > 100 µM

Q: What about the TGI (CAKI-1 renal) of the same compound?
A: > 100 µM

Q: And the TGI (SK-MEL-2 melanoma)?
A: 72.6 µM

Q: What about the TGI (HL-60(TB) leukemia) of the same compound?
A: 52.8 µM

Q: What about the TGI (A498 renal) of the same compound?
A: > 100 µM

Q: What about the TGI (LOX IMVI melanoma) of the same compound?
A: > 100 µM

Q: What about the TGI (HCT-15 colon) of the same compound?
A: > 100 µM

Q: What about the TGI (NCI-H23 lung) of the same compound?
A: > 100 µM

Q: And the TGI (OVCAR-8 ovarian)?
A: > 100 µM

Q: C[C@H](N)C(O)C/C=C\C/C=C\C/C=C\C/C=C\C/C=C\C/C=C\CCCCCCC(O)[C@H](C)N (some centres undefined) was tested. Which outcome (OVCAR-3 ovarian) did it give?
A: inactive

Q: What about the outcome (SNB-19 CNS) of the same compound?
A: inactive

Q: What about the outcome (786-0 renal) of the same compound?
A: inactive

Q: And the outcome (SN12C renal)?
A: inactive

Q: What about the outcome (RXF 393 renal) of the same compound?
A: inactive

Q: And the outcome (MDA-MB-231 breast)?
A: inactive

Q: What about the outcome (SF-539 CNS) of the same compound?
A: inactive

Q: And the outcome (UO-31 renal)?
A: inactive

Q: What about the outcome (SW-620 colon) of the same compound?
A: inactive

Q: And the outcome (SK-MEL-28 melanoma)?
A: inactive

Q: What about the outcome (HS 578T breast) of the same compound?
A: inactive

Q: And the outcome (SF-268 CNS)?
A: inactive

Q: And the outcome (HOP-62 NSCLC)?
A: inactive

Q: What about the outcome (U251 CNS) of the same compound?
A: inactive

Q: What about the outcome (HCT-116 colon) of the same compound?
A: inactive

Q: What about the outcome (ACHN renal) of the same compound?
A: inactive

Q: And the outcome (TK-10 renal)?
A: inactive

Q: And the outcome (MDA-N)?
A: inactive

Q: And the outcome (KM12 colon)?
A: inactive

Q: And the outcome (MCF7 breast)?
A: inactive

Q: What about the outcome (OVCAR-5 ovarian) of the same compound?
A: inactive

Q: What about the outcome (OVCAR-4 ovarian) of the same compound?
A: inactive

Q: And the outcome (MOLT-4 leukemia)?
A: inactive

Q: What about the outcome (MDA-MB-435) of the same compound?
A: inactive

Q: And the outcome (NCI-H522 lung)?
A: inactive

Q: And the outcome (UACC-257 melanoma)?
A: inactive

Q: What about the outcome (EKVX NSCLC) of the same compound?
A: inactive

Q: And the outcome (UACC-62 melanoma)?
A: inactive

Q: What about the outcome (HT29 colon) of the same compound?
A: inactive

Q: And the outcome (HCC-2998 colon)?
A: inactive

Q: And the outcome (K-562 leukemia)?
A: inactive

Q: And the outcome (SF-295 CNS)?
A: inactive

Q: What about the outcome (SR leukemia) of the same compound?
A: inactive

Q: What about the outcome (NCI-H226 lung) of the same compound?
A: inactive

Q: What about the outcome (PC-3 prostate) of the same compound?
A: inactive

Q: And the outcome (SNB-75 CNS)?
A: inactive

Q: And the outcome (BT-549 breast)?
A: inactive

Q: And the outcome (SK-OV-3 ovarian)?
A: inactive

Q: And the outcome (COLO 205 colon)?
A: inactive

Q: And the outcome (T-47D breast)?
A: inactive

Q: What about the outcome (MALME-3M melanoma) of the same compound?
A: inactive

Q: What about the outcome (M14 melanoma) of the same compound?
A: inactive

Q: And the outcome (CCRF-CEM leukemia)?
A: inactive

Q: What about the outcome (RPMI-8226 leukemia) of the same compound?
A: inactive

Q: What about the outcome (NCI-H460 lung) of the same compound?
A: inactive

Q: What about the outcome (DU-145 prostate) of the same compound?
A: inactive

Q: What about the outcome (CAKI-1 renal) of the same compound?
A: inactive

Q: And the outcome (SK-MEL-2 melanoma)?
A: inactive

Q: What about the outcome (HL-60(TB) leukemia) of the same compound?
A: inactive

Q: And the outcome (A498 renal)?
A: inactive

Q: And the outcome (LOX IMVI melanoma)?
A: inactive

Q: And the outcome (HCT-15 colon)?
A: inactive

Q: And the outcome (NCI-H23 lung)?
A: inactive

Q: What about the outcome (OVCAR-8 ovarian) of the same compound?
A: inactive
